{
  "source": "patent US12064448B2",
  "about": "“Methods for reducing bioavailability and absorption of ingested substances” (Nanyang Technological University, priority 2017, dated 2024)",
  "tested_on": "pancreatic lipase",
  "experiment": "3-phase simulated digestion, pH-stat titration of fatty acids released in small intestinal phase",
  "assay_type": "biochemical",
  "settings": "heavy cream, 13.3% fat, orlistat 4.8 mg/ml",
  "excerpt": "Corn oils was purchased from Sigma, Inc. These aforementioned fat food models were combined with nanocellulose or other control fibers including psyllium husk (Sigma) and wheat dextrin (Sigma) or the lipase inhibitor orlistat (Sigma). To combine test materials with cream, water, cream and the test material were combined to achieve the desired final concentrations of each, and the mixture was vortexed for 30 seconds. To combine test fibers with corn oil, the oil and water components were first combined and homogenized at high speed for 1 minute. Fibers or orlistat were then added to the emulsion and the mixture was vortexed for 30 seconds.\nIn vivo simulated digestion was performed using a 3-phase (mouth, stomach, small intestine) method. Briefly, in the mouth phase of the gastrointestinal tract (GIT) simulator, the nano-enabled food was mixed with a simulated saliva fluid and incubated at 37° C. for 10 seconds. The resultant mouth digesta was then combined and incubated with a simulated gastric fluid and incubated for 2 hours at 37° C. on an orbital shaker to complete the stomach phase. […] Free fatty acid (FFA) at the beginning of the intestinal phase (before addition of lipase) and in the final digesta was measured using a fluorometric assay kit (Cayman Chemical Cat #700310). […]",
  "data": [
    {"smiles": "CCCCCCCCCCC[C@@H](C[C@@H]1OC(=O)[C@H]1CCCCCC)OC(=O)[C@H](CC(C)C)NC=O", "note": "[orlistat]", "values": [
      {"measurement": "reduction of lipase activity (NaOH titrant used, percentage of total free fatty acids released)", "value": 91.5, "unit": "%"}
    ]}
  ]
}
